The values below come from US20100210649A1, “PYRIDAZINONES AND FURAN-CONTAINING COMPOUNDS” (Sloan-Kettering Institute for Cancer Research, priority 2006, published 2010).

Read-outs that look alike come from different tables or passages of the source.

Common to all, as to assay type: cell-based, human
One assay has as its system H2030. The assay is described as follows: Non Small Cell Lung Cancer proliferation assay (Alamar Blue reduction), H2030. The settings on record: primary screening, 10 μM compound in 1% DMSO (v/v); for inhibition at 10 µM: Homo sapiens, NCI-H2030. On the procedure:
(§1) These cells have a doubling time of 1-2 days. All cell types are adherent and grow in colonies. The cells should be kept at a density between 50,000 cells/mL -500,000 cells/mL to provide for optimum growth and adequate nutrition. The cell line should be maintained at 37° C. in a humidified atmosphere with 5% CO2 in a sterile cell culture incubator.
(§2) Non Small Cell Lung Cancer Proliferation Assay.
(§3) High Controls for this assay are made by treating Non Small Cell Lung Cancer cells with 5 ul of 10% DMSO. [Final concentration in this assay is 1% DMSO].
(§4) Important Note: All compounds for testing in this assay should be done at the final concentration of 1% DMSO.
(§5) After addition, the cells are placed in cell culture incubator at 37° C. for 48 hours for complete treatment.
(§6) After drug treatment, cytotoxicity is measured by Alamar Blue reduction.
(§7) The cells are incubated for 48 hours at 37° C. to complete the Alamar Blue reduction.
(§8) The final step in the assay is to measure the amount of Alamar Blue reduction. […] The Alamar Blue fluorescence is measured at an excitation of 530 nm and emission of 590 nm.
(§9) For the NSCLC project, the cell based assay was screened against a small molecule library of approximately 200,000 compounds. The compound library is stored in our automated robotic freezer (Biophile) at −20° C. in 100% DMSO. Compound freeze and thaw cycles are kept to a minimum. […] This assay was performed on a fully automated linear track robotic platform (CRS F3 Robot System, Thermo Electron Corp., Ontario, Canada) utilizing several integrated peripherals for plate handling, liquid dispensing, and readout detection. […] The microplates are then placed at 37° C. for 48 hours to complete treatment of cells with compounds. Next, 5 ul of alamar blue was added using a liquid dispenser (Flexprop Precision Dispenser, Perkin Elmer, Mass., USA) and incubated for 48 hours at 37° C. The alamar blue prompt fluorescence was measured on Victor V (Victor^3 V, Perkin Elmer, Mass., USA) and output data files were loaded into ORIS (Oncology Research Informatics System, MSKCC, NY, USA), a screening data acquisition and analysis platform.
(§10) The dose response studies were done with the following standard procedure. First, the cells were counted and dispensed at 250 cells/well into 384-well microplates with compound. The cells were incubated for 48 hours at 37 C to complete treatment, and then alamar blue was added for an additional 48 hours. Finally, alamar blue reduction was measured and the data was loaded into ORIS, our data screening acquisition platform.
For orientation: The colour change of resazurin is a common sign of viable cells or microbes.

A further assay has as its system H1975. Put plainly: Non Small Cell Lung Cancer proliferation assay (Alamar Blue reduction), H1975. The settings on record: primary screening, 10 μM compound in 1% DMSO (v/v); for inhibition at 10 µM: Homo sapiens, NCI-H1975. As to the method: as §1, §2, §3, §4, §5, §6, §7, §8, §9, §10
A further assay concerns H3255. The assay is described as follows: Non Small Cell Lung Cancer proliferation assay (Alamar Blue reduction), H3255. The note with it: primary screening, 10 μM compound in 1% DMSO (v/v); for inhibition at 10 µM: Homo sapiens, NCI-H3255. As to the method: as §1, §2, §3, §4, §5, §6, §7, §8, §9, §10
A further assay has as its system H1650. Put plainly: Non Small Cell Lung Cancer proliferation assay (Alamar Blue reduction), H1650. The note with it: primary screening, 10 μM compound in 1% DMSO (v/v); for inhibition at 10 µM: Homo sapiens, NCI-H1650. As to the method:
as §1, §2, §3, §4, §5, §6, §7, §8, §9, §10

Setting [1] is: read-out: percentage inhibition H2030.
Where [2] appears, read: read-out: percentage inhibition H1975.
The mark [3] stands for this setting: read-out: percentage inhibition H3255.
[4] abbreviates: read-out: percentage inhibition H1650.
[5] abbreviates: H2030, read-out: PRIMARY HTS [%] H2030 (percentage inhibition).
[6] abbreviates: H1975, read-out: PRIMARY HTS [%] H1975 (percentage inhibition).
Where [7] appears, read: H3255, read-out: PRIMARY HTS [%] H3255 (percentage inhibition).
[8] abbreviates: H1650, read-out: PRIMARY HTS [%] H1650 (percentage inhibition).

By inhibition is commonly meant the relative decrease from the control value, in per cent.

As to `COc1ccc(-n2nc(-n3cnc4ccccc43)c(C)c(C#N)c2=O)cc1` [compound 176963], the inhibition at 10 µM in the assay on H2030 (setting [1]) is 4%; in the assay with H1975 (setting [2]), -5%; with H3255 (setting [3]), 17%; with H1650 (setting [4]), 11%.
Take `O=C(Nc1ccc(Cl)cc1)c1ccco1` [compound 78158]: the inhibition at 10 µM in the assay with H2030 (setting [5]) is 6%; in the assay on H1975 (setting [6]), -2%; in the assay on H3255 (setting [7]), 4%; in the assay with H1650 (setting [8]), 20%.
In the case of `O=C(O)c1ccc(-n2ncc(Cl)c(Cl)c2=O)cc1` [compound 197940], the inhibition at 10 µM is 2% in the assay on H2030 (setting [1]), -6% in the assay on H1975 (setting [2]), -37% with H3255 (setting [3]) and 11% with H1650 (setting [4]).
For the compound `Cc1cccc(-n2nc(C(=O)c3ccco3)cc(-c3nc4ccccc4[nH]3)c2=N)c1` [compound 181802], the inhibition at 10 µM with H2030 (setting [1]) was -5%; with H1975 (setting [2]) it was 14%; with H3255 (setting [3]), 27%; in the assay with H1650 (setting [4]) it was -2%.
As for `N#Cc1ccccc1-n1nc(C(=O)c2cccs2)cc(-c2nc3ccccc3[nH]2)c1=N` [compound 186926], the “percentage inhibition H2030” value in the assay with H2030 was determined as 2%. Further, the “percentage inhibition H1975” value with H1975 is recorded as 81%. Moreover, the “percentage inhibition H3255” value in the assay with H3255 is 52%. In addition, in the assay with H1650, the “percentage inhibition H1650” value came out at 27%.
As to `O=c1cc(N2CCOCC2)cnn1-c1ccccc1` [compound 195066], the inhibition at 10 µM was 9% in the assay on H2030 (setting [1]), -3% in the assay on H1975 (setting [2]), -9% in the assay with H3255 (setting [3]) and 8% in the assay on H1650 (setting [4]).
In the case of `O=C(Nc1ccccc1C(=O)NCc1ccc(Cl)cc1)c1ccco1` [compound 88935], the inhibition at 10 µM was -1% with H2030 (setting [5]), -10% in the assay on H1975 (setting [6]), -2% in the assay with H3255 (setting [7]) and -4% with H1650 (setting [8]).
As to `O=C(CSc1cnn(-c2ccccc2)c(=O)c1Cl)c1ccc(Br)cc1` [compound 183073], the inhibition at 10 µM in the assay with H2030 (setting [1]) is 8%; in the assay with H1975 (setting [2]), -6%; with H3255 (setting [3]), 30%; with H1650 (setting [4]) it was -3%.
For `CCOc1cnn(-c2ccccc2)c(=O)c1Cl` [compound 104217], the inhibition at 10 µM in the assay with H2030 (setting [1]) was 6%; in the assay with H1975 (setting [2]) it was -7%; with H3255 (setting [3]), -1%; in the assay on H1650 (setting [4]) it was -15%.
The matching figures for `O=c1c(SCc2ccccc2)c(SCc2ccc(Cl)cc2)cnn1-c1ccccc1` [compound 208705]: 10%, -20%, 0% and -4%.
With `Cc1ccc(-n2nc(C#N)c(-c3ccccc3)c(C#N)c2=O)cc1` [compound 224358], the inhibition at 10 µM is -2% in the assay on H2030 (setting [1]), -9% in the assay with H1975 (setting [2]), -14% in the assay with H3255 (setting [3]) and -4% with H1650 (setting [4]).
In the same order, the values of `COc1c(Cl)cnn(-c2cccc(C)c2)c1=O` [compound 104415] are -3%, 15%, 9% and -20%.
For `O=[N+]([O-])c1ccc(CN2CCN(c3ccccc3F)CC2)o1` [compound 100792], the inhibition at 10 µM in the assay with H2030 (setting [5]) is 43%; in the assay with H1975 (setting [6]) it was -9%; in the assay with H3255 (setting [7]) it was 1%; in the assay on H1650 (setting [8]) it was -5%.
`Cc1c(C(=O)c2ccccc2)nn(-c2ccccc2Cl)c(=N)c1C#N` [compound 227247]: the inhibition at 10 µM in the assay on H2030 (setting [1]) was -1%; in the assay with H1975 (setting [2]), -9%; in the assay on H3255 (setting [3]), 11%; with H1650 (setting [4]), -16%.
As to `COc1ccc(N2CCN(Cc3ccc([N+](=O)[O-])o3)CC2)cc1` [compound 100588], the inhibition at 10 µM with H2030 (setting [5]) was 5%; with H1975 (setting [6]), -14%; with H3255 (setting [7]), 4%; in the assay with H1650 (setting [8]), -5%.
Regarding `COc1cnn(-c2ccccc2)c(=O)c1S` [compound 187118], the inhibition at 10 µM in the assay with H2030 (setting [1]) turned out to be 7%; in the assay with H1975 (setting [2]) it was 96%; in the assay with H3255 (setting [3]) it was 108%; in the assay on H1650 (setting [4]) it was 101%.
Turning to `O=C(Cc1ccccc1)Oc1ccc(=O)n(-c2ccccc2)n1` [compound 180651], the inhibition at 10 µM in the assay with H2030 (setting [1]) was 11%; in the assay with H1975 (setting [2]), 13%; with H3255 (setting [3]), 35%; in the assay on H1650 (setting [4]) it was 21%.
The matching figures for `O=c1c(SCc2ccccc2)c(SCc2ccccc2)cnn1-c1ccccc1` [compound 208693]: -11%, -7%, 0% and -6%.
On to `O=c1c(Sc2ccc(Cl)cc2)cc(Cl)nn1-c1ccccc1` [compound 177261], for which the inhibition at 10 µM with H2030 (setting [1]) was -8%; in the assay with H1975 (setting [2]), 16%; in the assay with H3255 (setting [3]), 8%; in the assay with H1650 (setting [4]), 14%.
Take `O=C(Nc1ccc(NC(=O)c2ccc(Cl)cc2Cl)cc1)c1cc2ccccc2o1` [compound 109007]: the inhibition at 10 µM with H2030 (setting [5]) is 3%; in the assay on H1975 (setting [6]), -3%; in the assay on H3255 (setting [7]) it was 1%; in the assay with H1650 (setting [8]) it was -6%.
`COc1cnn(-c2ccc([N+](=O)[O-])cc2)c(=O)c1Cl` [compound 104339]: the inhibition at 10 µM in the assay with H2030 (setting [1]) was -3%; in the assay on H1975 (setting [2]), -9%; in the assay with H3255 (setting [3]), 3%; in the assay on H1650 (setting [4]), -21%.
Turning to `CC1CN(C(=O)c2ccc([N+](=O)[O-])o2)CC(C)O1` (stereo not shown) [compound 77942], the inhibition at 10 µM with H2030 (setting [5]) is 6%; in the assay with H1975 (setting [6]), -2%; in the assay on H3255 (setting [7]) it was 7%; with H1650 (setting [8]), 14%.
Regarding `O=C(c1ccc([N+](=O)[O-])o1)N1CCOCC1` [compound 77953], the inhibition at 10 µM in the assay with H2030 (setting [5]) is -6%; in the assay with H1975 (setting [6]), -1%; in the assay with H3255 (setting [7]), 0%; in the assay with H1650 (setting [8]), 12%.
Consider `COc1ccc(-n2nc(Cl)ccc2=O)cc1` [compound 194491], for which the inhibition at 10 µM is -12% in the assay on H2030 (setting [1]), 0% with H1975 (setting [2]), -32% with H3255 (setting [3]) and -2% with H1650 (setting [4]).
In the case of `COc1cnn(-c2cccc(C)c2)c(=O)c1Cl` [compound 104325], the inhibition at 10 µM with H2030 (setting [1]) was 2%; with H1975 (setting [2]), -12%; in the assay on H3255 (setting [3]) it was 4%; in the assay with H1650 (setting [4]), -31%.
In the same order, the values of `Cc1c(C(=O)NN)nn(-c2ccccc2)c(=O)c1C#N` [compound 194841] are -9%, -15%, -35% and -1%.
In the case of `O=c1c(Cl)c(N2CCCC2)cnn1-c1ccccc1` [compound 103868], the inhibition at 10 µM in the assay with H2030 (setting [1]) is -4%; in the assay with H1975 (setting [2]), -18%; with H3255 (setting [3]), -3%; with H1650 (setting [4]), -7%.
In the same order, the values of `Cc1ccc(C)c(Sc2cnn(-c3ccccc3)c(=O)c2Cl)c1` [compound 183339] are -12%, 8%, -30% and 15%.
